Measured values from the supplement of paper PMC10307832.

Assays:
Assay in all cases: relative viability (nuclei count vs DMSO), 5 days (fraction); higher = more cells survive
Ispinesib + OSI-027 = compound: Cc1ccc(C(=O)N(CCCN)[C@@H](c2nc3cc(Cl)ccc3c(=O)n2Cc2ccccc2)C(C)C)cc1 [Ispinesib] + COc1cccc2cc(-c3nc([C@H]4CC[C@H](C(=O)O)CC4)n4ncnc(N)c34)[nH]c12 [OSI-027] (partner 0.5 µM)
Outline: (§1)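 Five library-drug doses in √10 steps were combined with a fixed anchor-drug dose, or a single drug was given alone, by pin tool to lung cancer cell lines in 1536-well plates the day after seeding. Nuclei were stained and counted after 5 days. Relative viability is the nuclei count in treated wells over that in vehicle wells, taken as the median of duplicate plates.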

Linsitinib + Trametinib = compound: C[C@]1(O)C[C@@H](c2nc(-c3ccc4ccc(-c5ccccc5)nc4c3)c3c(N)nccn32)C1 [Linsitinib] + CC(=O)Nc1cccc(-n2c(=O)n(C3CC3)c(=O)c3c(Nc4ccc(I)cc4F)n(C)c(=O)c(C)c32)c1 [Trametinib] (partner 0.02 µM)
Outline: as §1

Linsitinib + Dasatinib = compound: C[C@]1(O)C[C@@H](c2nc(-c3ccc4ccc(-c5ccccc5)nc4c3)c3c(N)nccn32)C1 [Linsitinib] + Cc1nc(Nc2ncc(C(=O)Nc3c(C)cccc3Cl)s2)cc(N2CCN(CCO)CC2)n1 [Dasatinib] (partner 0.075 µM)
Outline: as §1

Ispinesib + Pemetrexed = compound: Cc1ccc(C(=O)N(CCCN)[C@@H](c2nc3cc(Cl)ccc3c(=O)n2Cc2ccccc2)C(C)C)cc1 [Ispinesib] + Nc1nc2[nH]cc(CCc3ccc(C(=O)N[C@@H](CCC(=O)O)C(=O)O)cc3)c2c(=O)[nH]1 [Pemetrexed] (partner 0.2 µM)
Outline: as §1

## UMC-11
Ispinesib + OSI-027; first compound 0.001 µM
  relative viability: 0.484
Ispinesib + OSI-027; first compound 0.003162 µM
  relative viability: 0.429
Ispinesib + OSI-027; first compound 0.01 µM
  relative viability: 0.445
Ispinesib + OSI-027; first compound 0.03162 µM
  relative viability: 0.219
Ispinesib + OSI-027; first compound 0.1 µM
  relative viability: 0.239
Linsitinib + Trametinib; first compound 0.01 µM
  relative viability: 0.72
Linsitinib + Trametinib; first compound 0.03162 µM
  relative viability: 0.76
Linsitinib + Trametinib; first compound 0.1 µM
  relative viability: 0.7
Linsitinib + Trametinib; first compound 0.3162 µM
  relative viability: 0.211
Linsitinib + Trametinib; first compound 1 µM
  relative viability: 0.471
Linsitinib + Dasatinib; first compound 0.01 µM
  relative viability: 0.462
Linsitinib + Dasatinib; first compound 0.03162 µM
  relative viability: 0.44
Linsitinib + Dasatinib; first compound 0.1 µM
  relative viability: 0.501
Linsitinib + Dasatinib; first compound 1 µM
  relative viability: 0.438
Ispinesib + Pemetrexed; first compound 0.001 µM
  relative viability: 0.844
Ispinesib + Pemetrexed; first compound 0.003162 µM
  relative viability: 0.829
Ispinesib + Pemetrexed; first compound 0.01 µM
  relative viability: 0.868
Ispinesib + Pemetrexed; first compound 0.03162 µM
  relative viability: 0.451
Ispinesib + Pemetrexed; first compound 0.1 µM
  relative viability: 0.235
